From ChEMBL document CHEMBL1201862, “PubChem BioAssay data set” (2004)
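Growth conditions: 96-well plates. Treatment: test compound, 48 hours, 5 concentrations. Analysis: linear interpolation between bracketing concentrations; unreached endpoints set to highest concentration. Here, GI50 denotes the concentration required for 50% inhibition of growth.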 Active and inactive are the calls of the source. Rule as the data show it: active = GI50 up to about 1.1 µM and inactive = higher. Peptide text beside a SMILES is read from it.

Tests used:
Test in all cases: DTP human tumour cell line panel, 48 h
[1] = test system: LOX IMVI
[2] = test system: TK-10
[3] = test system: A498
[4] = test system: ACHN
[5] = test system: MOLT-4
[6] = test system: KM12
[7] = test system: HCT-116
[8] = test system: SF-539
[9] = test system: NCI-H460
[10] = test system: UACC-257
[11] = test system: PC-3
[12] = test system: NCI-H23
[13] = test system: CCRF-CEM
[14] = test system: SW-620
[15] = test system: SNB-75
[16] = test system: U-251
[17] = test system: IGROV-1
[18] = test system: COLO 205
[19] = test system: RXF 393
[20] = test system: HOP-92

Structure (SMILES)	GI50 [1]	GI50 [2]	GI50 [3]	GI50 [4]	GI50 [5]	GI50 [6]	GI50 [7]	GI50 [8]	GI50 [9]	GI50 [10]	GI50 [11]	GI50 [12]	GI50 [13]	GI50 [14]	GI50 [15]	GI50 [16]	GI50 [17]	GI50 [18]	GI50 [19]	GI50 [20]
O=C(C(=O)c1cc(-c2ccccc2)nc2ccc3ccccc3c12)c1ccccc1	52 µM (inactive)	99.3 µM (inactive)	90.4 µM (inactive)	> 100 µM (inactive)	22.1 µM (inactive)	31.3 µM (inactive)	10.6 µM (inactive)	32.1 µM (inactive)	> 100 µM (inactive)	75.7 µM (inactive)	43.2 µM (inactive)	34.1 µM (inactive)	24.7 µM (inactive)	59 µM (inactive)	18.4 µM (inactive)	34.5 µM (inactive)	37.9 µM (inactive)	88.1 µM (inactive)	39 µM (inactive)	–
O=C(OCC(Cl)(Cl)Cl)N1CC[C@@H](C2CCCCC2)C1	40.6 µM (inactive)	30.1 µM (inactive)	–	22.8 µM (inactive)	33.8 µM (inactive)	17 µM (inactive)	29.6 µM (inactive)	–	21 µM (inactive)	28.4 µM (inactive)	21.2 µM (inactive)	20.2 µM (inactive)	21.5 µM (inactive)	–	21.7 µM (inactive)	0.1 µM (active)	75.5 µM (inactive)	23.6 µM (inactive)	18.3 µM (inactive)	–
O=C(/C=C\c1ccccc1)Oc1ccc(/C=C2\CCC/C(=C\c3ccc(OC(=O)/C=C\c4ccccc4)cc3)C2=O)cc1	> 100 µM (inactive)	> 100 µM (inactive)	–	> 100 µM (inactive)	> 100 µM (inactive)	> 100 µM (inactive)	> 100 µM (inactive)	> 100 µM (inactive)	> 100 µM (inactive)	> 100 µM (inactive)	> 100 µM (inactive)	> 100 µM (inactive)	> 100 µM (inactive)	> 100 µM (inactive)	56.5 µM (inactive)	> 100 µM (inactive)	–	> 100 µM (inactive)	–	> 100 µM (inactive)
COc1cc(C2SC(=N)Nc3c2c(C)nn3C(=O)Cc2ccccc2)ccc1O (stereo not drawn)	> 100 µM (inactive)	> 100 µM (inactive)	> 100 µM (inactive)	> 100 µM (inactive)	> 100 µM (inactive)	> 100 µM (inactive)	> 100 µM (inactive)	> 100 µM (inactive)	> 100 µM (inactive)	> 100 µM (inactive)	> 100 µM (inactive)	> 100 µM (inactive)	> 100 µM (inactive)	> 100 µM (inactive)	26.8 µM (inactive)	–	> 100 µM (inactive)	> 100 µM (inactive)	–	–
N#Cc1c(-c2ccccc2)c(/C=N/c2cccc(C(F)(F)F)c2)c(=O)n2c1[nH]c1ccccc12	32.6 µM (inactive)	32.9 µM (inactive)	34.4 µM (inactive)	30.1 µM (inactive)	–	19.4 µM (inactive)	29.6 µM (inactive)	16.7 µM (inactive)	14.5 µM (inactive)	32.5 µM (inactive)	31 µM (inactive)	34.9 µM (inactive)	40.4 µM (inactive)	30.2 µM (inactive)	46 µM (inactive)	45 µM (inactive)	29.2 µM (inactive)	> 100 µM (inactive)	32.8 µM (inactive)	–
c1ccc(/N=C(\N2CCCC2)N(CCN2CCCC2)c2ccccc2)cc1	2.86 µM (inactive)	30.8 µM (inactive)	–	40 µM (inactive)	3.98 µM (inactive)	11 µM (inactive)	1.83 µM (inactive)	–	10.3 µM (inactive)	21 µM (inactive)	5.5 µM (inactive)	11.1 µM (inactive)	5.93 µM (inactive)	11.4 µM (inactive)	14.4 µM (inactive)	29.9 µM (inactive)	24.9 µM (inactive)	7.33 µM (inactive)	–	22.6 µM (inactive)
CC1(C)CC(=O)C2=C(C1)NC1=C(C2)C(=O)CC(C)(C)C1	> 100 µM (inactive)	> 100 µM (inactive)	> 100 µM (inactive)	> 100 µM (inactive)	> 100 µM (inactive)	> 100 µM (inactive)	> 100 µM (inactive)	> 100 µM (inactive)	> 100 µM (inactive)	> 100 µM (inactive)	> 100 µM (inactive)	> 100 µM (inactive)	> 100 µM (inactive)	> 100 µM (inactive)	> 100 µM (inactive)	> 100 µM (inactive)	> 100 µM (inactive)	> 100 µM (inactive)	> 100 µM (inactive)	–
CC(=O)NN/C=N/C(C#N)=C(\N)C#N	> 100 µM (inactive)	> 100 µM (inactive)	> 100 µM (inactive)	> 100 µM (inactive)	> 100 µM (inactive)	> 100 µM (inactive)	> 100 µM (inactive)	> 100 µM (inactive)	> 100 µM (inactive)	> 100 µM (inactive)	> 100 µM (inactive)	> 100 µM (inactive)	> 100 µM (inactive)	> 100 µM (inactive)	> 100 µM (inactive)	> 100 µM (inactive)	> 100 µM (inactive)	> 100 µM (inactive)	–	–
Cc1cccc(C)c1NC(=O)/C=C/c1ccccc1	> 100 µM (inactive)	> 100 µM (inactive)	> 100 µM (inactive)	15.4 µM (inactive)	> 100 µM (inactive)	> 100 µM (inactive)	> 100 µM (inactive)	> 100 µM (inactive)	> 100 µM (inactive)	> 100 µM (inactive)	> 100 µM (inactive)	> 100 µM (inactive)	> 100 µM (inactive)	> 100 µM (inactive)	31.2 µM (inactive)	> 100 µM (inactive)	–	> 100 µM (inactive)	–	–
COC[C@@H](/N=C/c1ccc([N+](=O)[O-])cc1)C(C)C	52.7 µM (inactive)	> 100 µM (inactive)	–	> 100 µM (inactive)	42.2 µM (inactive)	> 100 µM (inactive)	26 µM (inactive)	–	> 100 µM (inactive)	> 100 µM (inactive)	> 100 µM (inactive)	> 100 µM (inactive)	75.9 µM (inactive)	> 100 µM (inactive)	> 100 µM (inactive)	> 100 µM (inactive)	> 100 µM (inactive)	–	> 100 µM (inactive)	–
COc1cccc(C23CCCC(C2)N(C)CC3OC(=O)c2ccccc2)c1OC (stereo not drawn)	20.1 µM (inactive)	–	34.7 µM (inactive)	32.7 µM (inactive)	18.4 µM (inactive)	22.9 µM (inactive)	20 µM (inactive)	52.5 µM (inactive)	20.6 µM (inactive)	25.8 µM (inactive)	23.8 µM (inactive)	10.7 µM (inactive)	12.5 µM (inactive)	24.4 µM (inactive)	–	28.3 µM (inactive)	15.6 µM (inactive)	14.1 µM (inactive)	–	–
Cc1nc(NC(C)(CO)CO)nc(N/N=C/c2ccc(Cl)cc2)c1C(=O)Nc1ccc(Cl)cc1	> 100 µM (inactive)	> 100 µM (inactive)	–	47.9 µM (inactive)	65.5 µM (inactive)	86.7 µM (inactive)	80.2 µM (inactive)	> 100 µM (inactive)	> 100 µM (inactive)	> 100 µM (inactive)	> 100 µM (inactive)	> 100 µM (inactive)	42.9 µM (inactive)	> 100 µM (inactive)	> 100 µM (inactive)	74.8 µM (inactive)	> 100 µM (inactive)	> 100 µM (inactive)	28.4 µM (inactive)	–
O=S(=O)(O)c1cc(Nc2ccnc3ccccc23)c2c(S(=O)(=O)O)cc(S(=O)(=O)O)cc2c1	> 100 µM (inactive)	> 100 µM (inactive)	> 100 µM (inactive)	–	> 100 µM (inactive)	> 100 µM (inactive)	> 100 µM (inactive)	> 100 µM (inactive)	> 100 µM (inactive)	> 100 µM (inactive)	> 100 µM (inactive)	> 100 µM (inactive)	> 100 µM (inactive)	42.1 µM (inactive)	> 100 µM (inactive)	> 100 µM (inactive)	> 100 µM (inactive)	> 100 µM (inactive)	> 100 µM (inactive)	–
CCOC(=O)c1ccc(N[C@@H]2c3cc4c(cc3C(C3=CC(=O)C(=O)C(OC)=C3)[C@H]3C(=O)OCC32)OCO4)cc1 (stereo partly drawn)	2.08 µM (inactive)	9.84 µM (inactive)	1.77 µM (inactive)	0.9 µM (active)	0.215 µM (active)	3.92 µM (inactive)	2.86 µM (inactive)	1.29 µM (inactive)	0.173 µM (active)	9.08 µM (inactive)	–	1.54 µM (inactive)	0.845 µM (active)	2.34 µM (inactive)	1.58 µM (inactive)	0.995 µM (active)	5.78 µM (inactive)	3.21 µM (inactive)	2.84 µM (inactive)	2.04 µM (inactive)
CC(C)CC(NC(=O)C(CC(C)C)NC(=O)C(Cc1c[nH]cn1)NC(=O)C(C)NC(=O)C(NC(=O)C(C)NC(=O)C(Cc1c[nH]c2ccccc12)NC(=O)C(CCC(=O)O)NC(=O)C(N)Cc1ccccc1)C(C)C)C(N)=O (stereo not drawn) (H-FEWAVAHLL-NH2; configuration not given here)	> 12.5 µM (inactive)	–	> 12.5 µM (inactive)	> 100 µM (inactive)	> 12.5 µM (inactive)	> 12.5 µM (inactive)	> 12.5 µM (inactive)	> 12.5 µM (inactive)	> 12.5 µM (inactive)	> 12.5 µM (inactive)	> 12.5 µM (inactive)	> 12.5 µM (inactive)	> 12.5 µM (inactive)	> 12.5 µM (inactive)	> 100 µM (inactive)	> 12.5 µM (inactive)	> 12.5 µM (inactive)	> 12.5 µM (inactive)	> 12.5 µM (inactive)	–
